Laboratory results reported in patent US10370343B2, “[6,6] Fused bicyclic HDAC8 inhibitors” (FORMA Therapeutics, Inc., priority 2015, dated 2019).

Target: T1, Recombinant N-terminal GST tag full-length human HDAC8 (Homo sapiens, UniProt Q9BY41)
T1 construct: Recombinant N-terminal GST tag full-length human HDAC8; purchased SignalChem H90-30G-1000; host or cells: baculovirus in Sf9 insect cells
T1 sequence (Q9BY41 1-377): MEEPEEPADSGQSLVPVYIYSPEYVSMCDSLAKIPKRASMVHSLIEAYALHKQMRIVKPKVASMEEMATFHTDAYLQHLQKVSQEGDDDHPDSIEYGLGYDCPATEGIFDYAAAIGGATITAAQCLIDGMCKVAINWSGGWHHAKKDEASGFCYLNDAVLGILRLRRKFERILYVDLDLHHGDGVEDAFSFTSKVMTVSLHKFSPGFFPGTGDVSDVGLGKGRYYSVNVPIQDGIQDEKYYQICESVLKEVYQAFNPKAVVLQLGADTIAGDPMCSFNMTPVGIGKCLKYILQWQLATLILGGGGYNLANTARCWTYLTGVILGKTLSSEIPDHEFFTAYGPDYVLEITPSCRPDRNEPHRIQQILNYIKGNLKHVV
Experiment: HDAC8 probe binding assay, time resolved fluorescence (TRF) format
Details: compounds grouped by IC50 range (Table 2)
Procedure: The HDAC8 probe binding assay was performed using a time resolved fluorescence (TRF) assay format. Recombinant N-terminal GST tag full-length human HDAC8 was expressed and purified from baculovirus in Sf9 insect cells (SignalChem, #[…]-1000). […] Plates were incubated for 16 hours at room temperature before time resolved fluorescence was read on the Envision (Excitation at 340 nm, and Emission at 485 nm and 535 nm, Perkin Elmer). Data from HDAC8 Assays were reported as percent inhibition (inh) compared with control wells based on the following equation: % inh=1-((FLU-AveLow)/(AveHigh-AveLow)) where FLU=measured time resolved fluorescence. AveLow=average time resolved fluorescence of no enzyme control (n=32). AveHigh=average time resolved fluorescence of DMSO control (n=32). IC50 values were determined by curve fitting of the standard 4 parameter logistic fitting algorithm included in the Activity Base software package: IDBS XE Designer Model205. Data is fitted using the Levenburg Marquardt algorithm. Ranges of IC50 values for compounds of the invention are disclosed in Table 2: Table 2. provides the compounds arranged according to […] determined in a time resolved fluorescence (TRF) assay. The compounds are separated into four groups: […]

IC50 [nM]	SMILES
25 to 100	O=C(NO)c1ccc2c(c1)N(Cc1c[nH]c3ccccc13)C(=O)CO2 [Compound I-200, 4-((1H-indol-3-yl)methyl)-N-hydroxy-3-oxo-3,4-dihydro-2H-benzo[b][1,4]oxazine-6-carboxamide]
≤ 25	N#Cc1c(CN2C(=O)COc3ccc(C(=O)NO)cc32)cn2ccccc12 [Compound I-201, 4-((1-cyanoindolizin-2-yl)methyl)-N-hydroxy-3-oxo-3,4-dihydro-2H-benzo[b][1,4]oxazine-6-carboxamide]
≤ 25	O=C(NO)c1ccc2c(c1)N(Cc1nc(-c3ccccc3)co1)C(=O)CO2 [Compound I-202, N-hydroxy-3-oxo-4-((4-phenyloxazol-2-yl)methyl)-3,4-dihydro-2H-benzo[b][1,4]oxazine-6-carboxamide]
25 to 100	O=C(NO)c1ccc2c(c1)N(Cc1n[nH]c3ccccc13)C(=O)CO2 [Compound I-203, 4-((1H-indazol-3-yl)methyl)-N-hydroxy-3-oxo-3,4-dihydro-2H-benzo[b][1,4]oxazine-6-carboxamide]
≤ 25	O=C(NO)c1ccc2c(c1)N(Cc1cc(-c3ccccc3)[nH]n1)C(=O)CO2 [Compound I-204, N-hydroxy-3-oxo-4-[(5-phenyl-1H-pyrazol-3-yl)methyl]-3,4-dihydro-2H-1,4-benzoxazine-6-carboxamide]
25 to 100	O=C(NO)c1ccc2c(c1)N(Cc1cn(-c3ccccc3)cn1)C(=O)CO2 [Compound I-205, N-hydroxy-3-oxo-4-((1-phenyl-1H-imidazol-4-yl)methyl)-3,4-dihydro-2H-benzo[b][1,4]oxazine-6-carboxamide]
25 to 100	O=C(NO)c1ccc2c(c1)N(Cc1ccncc1)C(=O)CO2 [Compound I-215, N-hydroxy-3-oxo-4-(pyridin-4-ylmethyl)-3,4-dihydro-2H-benzo[b][1,4]oxazine-6-carboxamide]
≤ 25	O=C(NO)c1ccc2c(c1)N(Cc1cccc(Oc3ccccc3)c1)C(=O)CO2 [Compound I-220, N-hydroxy-3-oxo-4-(3-phenoxybenzyl)-3,4-dihydro-2H-benzo[b][1,4]oxazine-6-carboxamide]
25 to 100	O=C(NO)c1ccc2c(c1)N(Cc1ccc(Oc3ccccc3)cc1)C(=O)CO2 [Compound I-229, N-hydroxy-3-oxo-4-(4-phenoxybenzyl)-3,4-dihydro-2H-benzo[b][1,4]oxazine-6-carboxamide]
25 to 100	O=C(NO)c1ccc2c(c1)N(Cc1cccc3ccccc13)C(=O)CO2 [Compound I-230, N-hydroxy-4-(naphthalen-1-ylmethyl)-3-oxo-3,4-dihydro-2H-benzo[b][1,4]oxazine-6-carboxamide]
≤ 25	O=C(NO)c1ccc2c(c1)N(Cc1ccc3ncccc3c1)C(=O)CO2 [Compound I-231, N-hydroxy-3-oxo-4-(quinolin-6-ylmethyl)-3,4-dihydro-2H-benzo[b][1,4]oxazine-6-carboxamide]
≤ 25	O=C(NO)c1ccc2c(c1)N(Cc1ccc3ccccc3n1)C(=O)CO2 [Compound I-232, N-hydroxy-3-oxo-4-(quinolin-2-ylmethyl)-3,4-dihydro-2H-benzo[b][1,4]oxazine-6-carboxamide]
≤ 25	N#Cc1cccc(CN2C(=O)COc3ccc(C(=O)NO)cc32)c1 [Compound I-236, 4-(3-cyanobenzyl)-N-hydroxy-3-oxo-3,4-dihydro-2H-benzo[b][1,4]oxazine-6-carboxamide]
≤ 25	N#Cc1ccc(CN2C(=O)COc3ccc(C(=O)NO)cc32)cc1 [Compound I-237, 4-(4-cyanobenzyl)-N-hydroxy-3-oxo-3,4-dihydro-2H-benzo[b][1,4]oxazine-6-carboxamide]
≤ 25	Cn1cc2ccc(CN3C(=O)COc4ccc(C(=O)NO)cc43)cc2n1 [Compound I-240, N-hydroxy-4-((2-methyl-2H-indazol-6-yl)methyl)-3-oxo-3,4-dihydro-2H-benzo[b][1,4]oxazine-6-carboxamide]

The remaining lines, values behind:

SMILES	IC50 [nM]
O=C(NO)c1ccc2c(c1)N(CC1CCN(c3ccccc3)CC1)C(=O)CO2 [Compound I-198, N-hydroxy-3-oxo-4-((1-phenylpiperidin-4-yl)methyl)-3,4-dihydro-2H-benzo[b][1,4]oxazine-6-carboxamide]	25 to 100
O=C(NO)c1ccc2c(c1)N(Cc1cnn(C3CC3)c1)C(=O)CO2 [Compound I-206, 4-((1-cyclopropyl-1H-pyrazol-4-yl)methyl)-N-hydroxy-3-oxo-3,4-dihydro-2H-benzo[b][1,4]oxazine-6-carboxamide]	25 to 100
Cc1cnc2sc(CN3C(=O)COc4ccc(C(=O)NO)cc43)nc2c1 [Compound I-207, N-hydroxy-4-((6-methylthiazolo[5,4-b]pyridin-2-yl)methyl)-3-oxo-3,4-dihydro-2H-benzo[b][1,4]oxazine-6-carboxamide]	≤ 25
COc1cnc2sc(CN3C(=O)COc4ccc(C(=O)NO)cc43)nc2c1 [Compound I-208, N-hydroxy-4-((6-methoxythiazolo[5,4-b]pyridin-2-yl)methyl)-3-oxo-3,4-dihydro-2H-benzo[b][1,4]oxazine-6-carboxamide]	≤ 25
O=C(NO)c1ccc2c(c1)N(Cc1nc3cc(Cl)cnc3s1)C(=O)CO2 [Compound I-209, 4-((6-chlorothiazolo[5,4-b]pyridin-2-yl)methyl)-N-hydroxy-3-oxo-3,4-dihydro-2H-benzo[b][1,4]oxazine-6-carboxamide]	≤ 25
Cc1ccc2nc(CN3C(=O)COc4ccc(C(=O)NO)cc43)sc2n1 [Compound I-210, N-hydroxy-4-((5-methylthiazolo[5,4-b]pyridin-2-yl)methyl)-3-oxo-3,4-dihydro-2H-benzo[b][1,4]oxazine-6-carboxamide]	≤ 25
COc1ccc2nc(CN3C(=O)COc4ccc(C(=O)NO)cc43)sc2n1 [Compound I-211, N-hydroxy-4-((5-methoxythiazolo[5,4-b]pyridin-2-yl)methyl)-3-oxo-3,4-dihydro-2H-benzo[b][1,4]oxazine-6-carboxamide]	≤ 25
O=C(NO)c1ccc2c(c1)N(Cc1nc3ccc(C(F)(F)F)nc3s1)C(=O)CO2 [Compound I-212, N-hydroxy-3-oxo-4-((5-(trifluoromethyl)thiazolo [5,4-b]pyridin-2-yl)methyl)-3,4-dihydro-2H-benzo[b][1,4]oxazine-6-carboxamide]	25 to 100
CC1(C)Oc2ccc(C(=O)NO)cc2N(Cc2cccc(Oc3ccccc3)c2)C1=O [Compound I-225, N-hydroxy-2,2-dimethyl-3-oxo-4-(3-phenoxybenzyl)-3,4-dihydro-2H-benzo[b][1,4]oxazine-6-carboxamide]	25 to 100
O=C(NO)c1ccc2c(c1)N(Cc1cccc(Oc3ccc(Cl)cc3)c1)C(=O)CO2 [Compound I-226, 4-(3-(4-chlorophenoxy)benzyl)-N-hydroxy-3-oxo-3,4-dihydro-2H-benzo[b][1,4]oxazine-6-carboxamide]	≤ 25
CC1(C)Oc2ccc(C(=O)NO)cc2N(Cc2cccc(Oc3ccc(Cl)cc3)c2)C1=O [Compound I-227, 4-(3-(4-chlorophenoxy)benzyl)-N-hydroxy-2,2-dimethyl-3-oxo-3,4-dihydro-2H-benzo[b][1,4]oxazine-6-carboxamide]	≤ 25
O=C(NO)c1ccc2c(c1)N(Cc1nc3ccc(C(F)(F)F)cc3o1)C(=O)CO2 [Compound I-233, N-hydroxy-3-oxo-4-((6-(trifluoromethyl)benzo[d]oxazol-2-yl)methyl)-3,4-dihydro-2H-benzo[b][1,4]oxazine-6-carboxamide]	≤ 25
O=C(NO)c1ccc2c(c1)N(Cc1nc3cc(C(F)(F)F)ccc3o1)C(=O)CO2 [Compound I-234, N-hydroxy-3-oxo-4-((5-(trifluoromethyl)benzo[d]oxazol-2-yl)methyl)-3,4-dihydro-2H-benzo[b][1,4]oxazine-6-carboxamide]	≤ 25
Cn1cc2cc(CN3C(=O)COc4ccc(C(=O)NO)cc43)ccc2n1 [Compound I-238, N-hydroxy-4-((2-methyl-2H-indazol-5-yl)methyl)-3-oxo-3,4-dihydro-2H-benzo[b][1,4]oxazine-6-carboxamide]	≤ 25
Cc1nc2ccc(CN3C(=O)COc4ccc(C(=O)NO)cc43)cc2o1 [Compound I-239, N-hydroxy-4-((2-methylbenzo[d]oxazol-6-yl)methyl)-3-oxo-3,4-dihydro-2H-benzo[b][1,4]oxazine-6-carboxamide]	≤ 25
Cc1cc2oc(CN3C(=O)COc4ccc(C(=O)NO)cc43)nc2cc1Cl [Compound I-261, 4-((5-chloro-6-methylbenzo[d]oxazol-2-yl)methyl)-N-hydroxy-3-oxo-3,4-dihydro-2H-benzo[b][1,4]oxazine-6-carboxamide]	≤ 25
